Laboratory results taken from ChEMBL document CHEMBL4038320 (J Med Chem, 2017).

Tests used:
CYP3A4 = CYP3A4 (Homo sapiens, UniProt P08684); assay: Inhibition of CYP3A4 (unknown origin) at 10 uM; format: ADME
[1] = biological target: Rho-associated protein kinase 2 (Homo sapiens, UniProt O75116); assay: Inhibition of recombinant human N-terminal GST-tagged ROCK2 catalytic domain (1 to 553 residues) expressed in baculovirus expression system using STK 2-biotin as substrate measured after 60 mins by HTRF/TR-FRET assay
[2] = biological target: Protein kinase C alpha type (Homo sapiens, UniProt P17252); assay: Inhibition of human PKCalpha active using MBP as substrate after 60 mins in presence of [gamma-32]ATP by scintillation counting

Sequence of Rho-associated protein kinase 2 (O75116 whole entry, the tested form may be a part): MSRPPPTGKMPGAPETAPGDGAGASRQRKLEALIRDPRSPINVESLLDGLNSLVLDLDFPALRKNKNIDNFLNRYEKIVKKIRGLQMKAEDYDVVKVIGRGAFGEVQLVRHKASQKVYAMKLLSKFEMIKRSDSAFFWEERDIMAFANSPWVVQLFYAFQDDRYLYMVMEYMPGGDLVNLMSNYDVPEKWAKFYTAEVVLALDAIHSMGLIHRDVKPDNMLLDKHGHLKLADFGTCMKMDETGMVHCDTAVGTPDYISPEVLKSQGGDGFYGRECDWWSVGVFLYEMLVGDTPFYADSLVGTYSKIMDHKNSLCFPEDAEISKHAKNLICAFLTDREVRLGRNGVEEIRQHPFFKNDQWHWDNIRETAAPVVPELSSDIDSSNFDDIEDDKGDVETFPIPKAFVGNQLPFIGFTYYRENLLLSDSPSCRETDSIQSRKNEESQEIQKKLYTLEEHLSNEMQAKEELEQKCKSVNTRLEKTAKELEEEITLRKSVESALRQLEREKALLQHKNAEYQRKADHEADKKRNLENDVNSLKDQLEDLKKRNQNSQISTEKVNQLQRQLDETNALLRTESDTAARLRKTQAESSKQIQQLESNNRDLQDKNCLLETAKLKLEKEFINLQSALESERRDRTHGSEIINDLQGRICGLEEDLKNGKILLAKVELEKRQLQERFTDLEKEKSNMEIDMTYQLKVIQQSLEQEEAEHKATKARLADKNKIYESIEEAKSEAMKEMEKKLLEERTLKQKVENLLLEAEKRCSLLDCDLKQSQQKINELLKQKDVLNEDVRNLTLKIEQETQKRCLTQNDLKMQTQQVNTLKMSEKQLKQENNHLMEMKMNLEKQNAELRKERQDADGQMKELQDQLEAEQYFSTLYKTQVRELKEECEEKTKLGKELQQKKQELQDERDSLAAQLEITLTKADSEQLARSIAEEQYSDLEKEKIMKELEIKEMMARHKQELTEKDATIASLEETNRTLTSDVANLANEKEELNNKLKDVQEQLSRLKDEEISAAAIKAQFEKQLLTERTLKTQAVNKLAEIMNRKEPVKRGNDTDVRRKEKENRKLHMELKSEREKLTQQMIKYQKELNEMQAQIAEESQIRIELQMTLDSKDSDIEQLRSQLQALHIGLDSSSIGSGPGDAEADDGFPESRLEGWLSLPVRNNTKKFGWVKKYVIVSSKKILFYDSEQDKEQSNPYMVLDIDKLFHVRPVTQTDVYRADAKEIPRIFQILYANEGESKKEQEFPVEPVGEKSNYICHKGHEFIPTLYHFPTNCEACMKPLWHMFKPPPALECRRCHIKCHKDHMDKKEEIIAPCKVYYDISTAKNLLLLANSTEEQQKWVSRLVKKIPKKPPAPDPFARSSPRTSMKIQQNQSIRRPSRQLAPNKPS
Sequence of CYP3A4 (P08684 whole entry, the tested form may be a part): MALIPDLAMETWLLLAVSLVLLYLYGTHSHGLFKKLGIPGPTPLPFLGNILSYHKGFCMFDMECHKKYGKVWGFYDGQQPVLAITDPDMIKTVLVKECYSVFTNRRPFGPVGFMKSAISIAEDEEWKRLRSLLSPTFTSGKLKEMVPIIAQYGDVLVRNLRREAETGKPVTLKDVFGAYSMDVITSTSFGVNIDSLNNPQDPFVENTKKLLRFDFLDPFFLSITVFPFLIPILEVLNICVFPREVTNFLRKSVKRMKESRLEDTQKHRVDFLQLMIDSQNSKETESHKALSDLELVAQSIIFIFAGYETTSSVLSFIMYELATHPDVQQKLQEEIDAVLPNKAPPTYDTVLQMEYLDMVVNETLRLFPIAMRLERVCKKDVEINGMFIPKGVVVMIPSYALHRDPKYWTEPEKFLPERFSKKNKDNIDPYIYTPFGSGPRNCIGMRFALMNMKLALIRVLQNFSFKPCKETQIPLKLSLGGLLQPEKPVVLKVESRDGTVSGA

SMILES | inhibition at 10 µM (CYP3A4) [%] | IC50 [1] [nM] | IC50 [2] [nM]
Cn1c(CNc2cccc(C(=O)NCc3ccccc3C(F)(F)F)c2)nnc1-c1ccncn1 | 63 | 720 | > 10000
c1ccc(CCOc2cccc(NCc3nc(-c4ccncc4)n[nH]3)c2)cc1 | 96 | 2700 | > 10000
COc1cccc(NCc2nc(-c3ccncc3)n[nH]2)c1 | 92 | 720 | > 10000
O=C(NCc1ccccc1C(F)(F)F)c1cccc(NCc2nnc(-c3ccncc3)n2CCO)c1 | 79 | 320 | 7600
Cn1c(CNc2cccc(C(=O)NCc3c(F)cccc3F)c2)nnc1-c1ccncn1 | 24 | 1900 | > 10000
c1ccc(CSc2cccc(NCc3nc(-c4ccncc4)n[nH]3)c2)cc1 | 100 | 1200 | > 10000
Cn1c(CNc2cccc(C(=O)NCc3c(F)cccc3F)c2)nnc1-c1ccnc(NCc2ccccc2)c1 | 47 | > 10000 | > 10000
c1ccc(COc2cccc(NCc3nc(-c4ccncc4)n[nH]3)c2)cc1 | 97 | 1400 | > 10000
Cn1c(CNc2cccc(C(=O)NCc3ccccc3Cl)c2)nnc1-c1ccncc1 | 54 | 1600 | 8700
O=C(NCc1ccccc1)c1cccc(NCc2nc(-c3ccncc3)no2)c1 | 86 | 350 | > 10000
NS(=O)(=O)c1ccc(NCc2nc(-c3ccncc3)n[nH]2)cc1 | 20 | 360 | > 10000
Cc1cc(-c2n[nH]c(CNc3ccc(Cl)cc3)n2)ccn1 | 47 | 7100 | > 10000
O=C(NCc1ccccc1)c1cccc(NCc2nc(-c3ccncc3CO)n[nH]2)c1 | 100 | 540 | > 10000
COc1ccccc1CNC(=O)c1cccc(NCc2nnc(-c3ccncc3)n2C)c1 | 60 | 1600 | > 10000
COc1ccccc1NCc1nc(-c2ccncc2)n[nH]1 | 93 | 1800 | > 10000
Clc1cccc(NCc2nc(-c3ccncc3)n[nH]2)c1 | 93 | 380 | > 10000
c1ccc(Oc2cccc(NCc3nc(-c4ccncc4)n[nH]3)c2)cc1 | 100 | > 10000 | > 10000
COCCn1c(CNc2cccc(C(=O)NCc3ccccc3)c2)nnc1-c1ccncc1 | 57 | 320 | 7400
CN(Cc1ccccc1)C(=O)c1cccc(NCc2nc(-c3ccncc3)n[nH]2)c1 | 79 | 2200 | > 10000
c1ccc(NCc2nc(-c3ccncc3)n[nH]2)cc1 | 94 | 630 | > 10000
O=C(NCc1ccccc1)c1cccc(NCc2nnc(-c3ccncc3)o2)c1 | 43 | 320 | > 10000
Cn1c(CNc2cccc(C(=O)NCc3c(F)cccc3F)c2)nnc1-c1ccnc(NCCCc2ccccc2)c1 | 64 | > 10000 | 2500
O=C(Cc1cccc(NCc2nc(-c3ccncc3)n[nH]2)c1)NCc1ccccc1 | 92 | 480 | > 10000

These reach a lower IC50 [1]. Values come first.

inhibition at 10 µM (CYP3A4) [%] | IC50 [1] [nM] | IC50 [2] [nM] | SMILES
95 | 280 | > 10000 | COc1ccc(NCc2nc(-c3ccncc3)n[nH]2)cc1
50 | 260 | 4800 | CC(C)n1c(CNc2cccc(C(=O)NCc3ccccc3)c2)nnc1-c1ccncc1
51 | 190 | 250 | CCCn1c(CNc2cccc(C(=O)NCc3c(F)cccc3F)c2)nnc1-c1ccncn1
25 | 160 | > 10000 | NS(=O)(=O)c1cccc(NCc2nc(-c3ccncc3)n[nH]2)c1
81 | 140 | 1200 | CCCn1c(CNc2cccc(C(=O)NCc3ccccc3C(F)(F)F)c2)nnc1-c1ccncn1
92 | 130 | 8300 | O=C(NCc1ccccc1)c1cccc(NCc2cc(-c3ccncc3)no2)c1
87 | 120 | > 10000 | O=C(NCc1ccccc1)c1cccc(NCc2csc(-c3ccncc3)n2)c1
94 | 100 | > 10000 | O=C(NCCCc1ccccc1)c1cccc(NCc2nc(-c3ccncc3)n[nH]2)c1
88 | 94 | > 10000 | Cc1cnccc1-c1n[nH]c(CNc2cccc(C(=O)NCc3ccccc3)c2)n1
97 | 94 | > 10000 | Clc1ccc(NCc2nc(-c3ccncc3)n[nH]2)cc1
95 | 85 | 3300 | COc1ccccc1CNC(=O)c1cccc(NCc2nnc(-c3ccncc3)[nH]2)c1
80 | 74 | 8300 | CC(=O)Nc1cc(NCc2nc(-c3ccncc3)n[nH]2)ccc1Cl
99 | 60 | 7200 | O=C(NCc1ccccc1)c1cccc(NCc2cc(-c3ccncc3)n[nH]2)c1
100 | 52 | > 10000 | O=C(NCc1ccccc1)c1cccc(NCc2cc(-c3ccncc3)c[nH]2)c1
97 | 50 | 1100 | O=C(NCc1ccccc1Cl)c1cccc(NCc2nnc(-c3ccncc3)[nH]2)c1
95 | 47 | > 10000 | O=C(NCCc1ccccc1)c1cccc(NCc2nc(-c3ccncc3)n[nH]2)c1
94 | 31 | 680 | O=C(Nc1ccccc1)c1cccc(NCc2nc(-c3ccncc3)n[nH]2)c1
92 | 30 | 2700 | O=C(NCc1ccccc1)Nc1cccc(NCc2nc(-c3ccncc3)n[nH]2)c1
91 | 27 | 7100 | COc1ccc(CNC(=O)c2cccc(NCc3nnc(-c4ccncc4)[nH]3)c2)cc1
92 | 22 | > 10000 | O=C(NCc1ccccc1)c1cccc(NCc2nc(-c3ccncc3)cs2)c1
84 | 18 | 2500 | O=C(NCc1ccccc1)c1cccc(NCc2cc(-c3ccncc3)on2)c1
90 | 18 | 1700 | O=C(Cc1ccccc1)Nc1cc(NCc2nc(-c3ccncc3)n[nH]2)ccc1Cl
100 | 7.3 | 3600 | O=C(NCc1ccccc1)c1cccc(NCc2nc(-c3ccncc3)c[nH]2)c1
